The subject of assay [1] is cancer cells. The settings on record: cited from earlier work.
The test system of assay [2] is cancer cells. Nature of the assay: Pro-apoptotic activity (apoptosis at 24H and 48H). It counts as cell-based. The settings on record: different concentrations, 24H and 48H (figure). An excerpt: (§1) FIG. 1 represents the effect of different concentrations of Castaline on apoptosis at 24H and 48 H and cell proliferation at 24H and 48H.
(§2) FIG. 2 represents the effect of different concentrations of Vescalene on apoptosis at 24H and 48 H and cell proliferation at 24H and 48H.
(§3) FIG. 3 represents the effect of different concentrations of Castalagine on apoptosis at 24H and 48H and cell proliferation at 24H and 48H.
(§4) FIG. 4 represents the effect of different concentrations of Acutissimine on apoptosis at 24H and 48H and cell proliferation at 24H and 48H.

In assay [3] the test system is cancer cells. Nature of the assay: Effect on cell proliferation at 24H and 48H. It counts as cell-based. Conditions: 24H and 48H (figure).
From the text: as §1, §2, §3, §4

A further assay has as its system DNA topoisomerase II. Nature of the assay: Inhibition of DNA topoisomerase II (decatenation). The assay is classed as biochemical. An excerpt: Inhibition of DNA Topoisomerase II

Consider acutissimine B, for which the “proliferation of cancer cells with subtoxic doses (background statement)” value (“proliferation of cancer cells” below) with cancer cells [1] was “stimulate the proliferation of cancer cells”.
For epiacutissamine A, the “proliferation of cancer cells” value with cancer cells [1] is recorded as “stimulate the proliferation of cancer cells”.
For the substance vescalagine, in the assay on cancer cells [1], the “proliferation of cancer cells” value is given as “stimulate the proliferation of cancer cells”.
As to Castaline, in the assay on cancer cells [2], the pro-apoptotic activity result is “has a pro-apototic activity”. Further, the “effect on cell proliferation with subtoxic doses” value (shortened to “effect on cell proliferation”) in the assay with cancer cells [3] is reported as “does not increase cell proliferation in a noteworthy manner”. Also, the results for the “Inhibition of decatenation (%)” value in the assay with DNA topoisomerase II (compound concentration 1 μm) and in the assay with DNA topoisomerase II (compound concentration 10 μm) were 87.9% and 67.0%, respectively.
For epiacutissamine B, the “proliferation of cancer cells” value with cancer cells [1] is given as “stimulate the proliferation of cancer cells”.
Castalagine [reference compound]: the “effect on cell proliferation” value in the assay on cancer cells [3] is listed as “increases cell proliferation”. For the same substance, the “proliferation of cancer cells” value in the assay on cancer cells [1] was “stimulate the proliferation of cancer cells”.
On to Vescaline, for which the results for the “Inhibition of decatenation (%)” value in the assay with DNA topoisomerase II (compound concentration 1 μm) and in the assay with DNA topoisomerase II (compound concentration 10 μm) were 95.5% and 100%, respectively.
As for Acutissimine A [reference compound], the “effect on cell proliferation” value with cancer cells [3] is on record as “increases cell proliferation”. The “proliferation of cancer cells” value in the assay on cancer cells [1] is recorded as “stimulate the proliferation of cancer cells”.
In the case of Vescalene, in the assay on cancer cells [2], the pro-apoptotic activity result is “has a pro-apoptotic activity”. Further, the “effect on cell proliferation” value in the assay on cancer cells [3] is given as “does not increase cell proliferation in a noteworthy manner”. Further, the “Inhibition of decatenation (%)” value worked out at 78.8% in the assay with DNA topoisomerase II (compound concentration 1 μm) and 97.3% with DNA topoisomerase II (compound concentration 10 μm).

These data come from US20090197938A1, “Polyphenol Type Compounds, Compositions Containing Same and Use Thereof for Preventing or Treating Diseases Involving Abnormal Cell Proliferation” (Fluofarma, priority 2005, published 2009).
